From US20170290854A1, “COMPOSITIONS AND METHODS FOR TREATING AND PREVENTING BACTERIAL INFECTIONS” (K10 Technologies, Inc., priority 2014, published 2017)
≈ marks a conversion by molar mass, not a printed value.

Assays:
Experiment in all cases: MIC assay (Experiments II)
Type in all cases: cell-based
[1] = test system: Streptococcus pyogenes ATCC 51339; conditions: ATCC51339, S. pyogenes ATCC 51339, 24 hours, read-out: Minimal inhibitory concentration
Description: (§1) A test sample of water containing water clusters at a concentration of approximately 150 million water clusters per drop of water, with an average water droplet size of 500 microns in diameter, was stored at room temperature until required. The sample of water was prepared according to the methods described in S. Y. Lo et al., Evidence for the existence of stable-water-clusters at room temperature and normal pressure. Physics Letters A (2009)). Linezolid diluted in dimethyl sulfoxide was used as a control.
(§2) The test sample of water containing water clusters was added to the first well of a 96-well plate. 2-fold dilutions were performed into all of the wells of that row containing cation-adjusted Mueller-Hinton Broth (CA-MHB) with 5% lysed horse blood except for the last well, which was used as a control without any testing agent. This was repeated in Brain Heart Infusion (BHI) broth. The Linezolid control followed a similar protocol but was diluted to 8 μg/mL in the first well, followed by 2-fold serial dilutions into both CA-MHB with 5% lysed horse blood and BHI broth.
(§3) Streptococcus mutans ATCC 31341, Streptococcus pneumonia ATCC 49619, and Streptococcus pyogenes ATCC 51339 were obtained from the American Type Culture Collection (Manassas, Va.). All strains were maintained as frozen glycerol stocks at −80° C. Working stocks were prepared by streaking bacteria onto Sheep Blood Agar plates, growing at 37° C. with 5% CO2 for 24 hours and suspending isolated colonies in 3 mL of 0.9% sterile saline to approximately 1×10^8 CFU/mL.
(§4) Bacterial working stocks were diluted into appropriate liquid media for a final inocula of about 5×10^6 CFU/mL. CA-MHB with 5% lysed horse blood was used for all the Streptococcus spp. While BHI broth was also used for S. mutans. 10 μL of stock suspension was added to each well of a 96-well MIC plate treated with the test sample of water containing water clusters. […] The plates were incubated at 35° C. with 5% CO2 for a full 24 hours before reading.

[2] = test system: Streptococcus mutans ATCC 31341; conditions: ATCC31341, S. mutans ATCC 31341, 24 hours, read-out: Minimal inhibitory concentration
Description: as §1, §2, §3, §4

[3] = test system: Streptococcus pneumonia ATCC 49619; conditions: Streptococcus pneumoniae, ATCC49619; S. pneumonia ATCC 49619; 24 hours; read-out: Minimal inhibitory concentration
Description: as §1, §2, §3, §4

MIC [1]: 1 µg/mL (≈ 2.96 µM) | MIC [2]: 1 µg/mL (≈ 2.96 µM) | MIC [3]: 1 µg/mL (≈ 2.96 µM)
SMILES: CC(=O)NC[C@H]1CN(c2ccc(N3CCOCC3)c(F)c2)C(=O)O1 [Linezolid]
